In this assay the target is T1, recombinant human PARP (PARP1) (Homo sapiens, UniProt P09874).
T1 construct: Full length human PARP (PARP1) is assembled from PCR fragments; His6 tag with TEV site, from the pFastBac-HTb vector (own knowledge of the vector); made in house; host or cells: insect cells, baculovirus (Bac-to-Bac, Gibco-BRL)
Put plainly: PARP enzyme assay, Method A (radioactivity or 'ELISA' enzyme assay with partially purified enzyme). The assay is classed as biochemical. The settings on record: recombinant human PARP preparation, radioactive or ELISA enzyme assay. The text has this:
Two different methods are employed in determining the activity of the compounds of this invention in inhibiting the activity of PARP enzyme, designated as Method A and Method B respectively as set forth below.
Method A: Cloning and Expression, and Partial Purification of Recombinant Human PARP:
Full length human PARP (PARP1) is assembled from PCR fragments of a clone from a human brain cDNA library and two Incyte clones. The PARP gene (3046 bp) is sub-cloned into pFastBac-HTb vector to give PARP-pFastBac-HTb and the sequence of this clone is verified. PARP-pFastBac-HTb is expressed to obtain protein using the Bac-to-Bac expression protocol from Gibco-BRL. The recombinant virus generated is used to scale up the material for purification.
Cell pellets from cell broth of cells expressing PARP are treated with a cocktail of protease inhibitors and lysed by 4 freeze-thaw cycles. The material is suspended in 10 mM HEPES/0.1M NaCl/pH 7.2, stirred, and then centrifuged. A 40%-70% ammonium sulfate cut of protein pellet is obtained from the supernatant. The pellet is solubilized in 10 mM HEPES/pH 7.2 and centrifuged. The supernatant buffer is exchanged to 10 mM HEPES/pH 7.2/0.1M NaCl/25% glycerol by dialysis or with a desalting column. The enzyme preparation is stored at −20° C. until use.
The compounds of this invention are then tested with this enzyme preparation using either the radioactive enzyme assay or by the “ELISA” enzyme assay as set forth below.
Radioactivity Enzyme Assay:
Incorporation of radioactivity from labeled NAD into acid-precipitated protein is measured. The reaction mixture (volume 100 μL or 50 μL, in a test-tube or 96-well plate) contained 100 μg/mL calf thymus DNA (sonicated), 100 μg/mL histones, 100 mM Tris (pH 8.0), 1.0 mM DTT, 10 mM MgCl2, NAD (200 μM, 0.65 microcurie/mL), and varying amounts of enzyme. The reaction was incubated for 10 min at 37° C. or at room temperature for 60 min. The reaction was stopped and protein precipitated by addition of ice-cold trichloroacetic acid (TCA; 10% or 20% aqueous w/v). After brief storage in ice or at 4° C. for 2 hrs, the reaction mixture is filtered under vacuum through a glass fiber filter (2.5 cm disc, or 96-well filter plate). After washing with TCA and ethanol, the filter is dried and counted for tritium CPM after addition of scintillation fluid.
Incorporation of biotin-NAD into histone coated on plate is measured. A 96-well protein-binding EIA plate is coated with histone and blocked with bovine serum albumin. The reaction mixture (50 μL) contained DNA, buffer, enzyme, (test compound), and 250 μM of NAD and 5 μL of biotin-NAD (Trevigen). After reaction at room temperature the wells are washed and treated with Extravidin (Sigma). After incubation and washing color is developed with the peroxidase substrate TMB (Sigma). The TMB reaction is quenched with 2M sulfuric acid and the absorbance at 450 nm is read.
(In an ELISA, binding on a coated surface is turned into a signal by an enzyme label.)

Counter-ions that a name gives are not always drawn.

In general, IC50 refers to the midpoint of a concentration-inhibition curve.

T1 sequence (P09874 whole entry, the tested form may be a part): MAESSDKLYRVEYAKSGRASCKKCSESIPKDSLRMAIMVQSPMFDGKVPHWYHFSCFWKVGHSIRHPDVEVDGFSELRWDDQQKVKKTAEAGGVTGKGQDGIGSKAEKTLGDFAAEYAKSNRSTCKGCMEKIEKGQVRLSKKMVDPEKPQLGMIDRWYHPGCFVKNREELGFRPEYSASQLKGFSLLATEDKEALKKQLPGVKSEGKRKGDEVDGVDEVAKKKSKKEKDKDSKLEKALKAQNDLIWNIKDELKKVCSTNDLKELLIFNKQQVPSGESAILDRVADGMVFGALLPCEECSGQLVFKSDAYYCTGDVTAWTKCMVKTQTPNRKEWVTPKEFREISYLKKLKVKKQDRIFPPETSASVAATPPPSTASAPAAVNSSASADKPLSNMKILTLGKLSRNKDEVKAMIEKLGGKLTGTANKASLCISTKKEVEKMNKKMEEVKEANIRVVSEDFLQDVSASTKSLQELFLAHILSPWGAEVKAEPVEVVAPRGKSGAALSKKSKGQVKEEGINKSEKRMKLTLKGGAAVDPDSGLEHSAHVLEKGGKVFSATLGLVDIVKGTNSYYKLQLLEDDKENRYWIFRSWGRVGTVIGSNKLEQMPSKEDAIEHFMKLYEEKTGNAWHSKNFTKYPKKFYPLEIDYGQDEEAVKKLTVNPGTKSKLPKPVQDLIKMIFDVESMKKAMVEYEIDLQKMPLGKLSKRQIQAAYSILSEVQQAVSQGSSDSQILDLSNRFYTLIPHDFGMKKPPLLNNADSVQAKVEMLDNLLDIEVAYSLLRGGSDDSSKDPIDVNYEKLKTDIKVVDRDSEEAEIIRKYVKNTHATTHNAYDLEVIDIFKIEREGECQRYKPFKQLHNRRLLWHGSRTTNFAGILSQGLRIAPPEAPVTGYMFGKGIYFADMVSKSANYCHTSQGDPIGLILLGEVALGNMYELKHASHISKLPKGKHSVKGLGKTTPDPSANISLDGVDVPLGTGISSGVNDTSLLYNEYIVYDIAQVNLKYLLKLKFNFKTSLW

Take `CCc1cc(-c2ccc(CNCCc3cnc[nH]3)s2)c(C)[nH]c1=O` [Example 155, 3-Ethyl-5-(5-{[(2-(3H-imidazol-4-yl)ethylamino]methyl}thiophen-2-yl)-6-methyl-1H-pyridin-2-one dihydrochloride]: the half-maximal inhibitory concentration (IC50) turned out to be 0.71 µM.

`CCc1cc(-c2ccc(S(=O)(=O)N3CCN(Cc4ccc5c(c4)OCO5)CC3)s2)c(C)[nH]c1=O` [Example 104, 5-[5-(4-1,3-Benzodioxol-5-ylmethylpiperazine-1-sulfonyl)-thiophen-2-yl]-3-ethyl-6-methyl-1H-pyridin-2-one hydrochloride]: the IC50 worked out at 2.5 µM.

Consider `CCc1cc(-c2ccc(S(=O)(=O)N3CCN(c4ccccn4)CC3)s2)c(C)[nH]c1=O` [Example 116, 3-Ethyl-6-methyl-5-{5-[(4-pyridin-2-yl)piperazine-1-sulfonyl]thiophen-2-yl}-1H-pyridin-2-one hydrochloride], for which the IC50 stood at 0.45 µM. On to `CCc1cc(-c2ccc(CNC(=O)CN(C)C)s2)c(C)[nH]c1=O` [Example 177, 2-Dimethylamino-N-[5-(5-ethyl-2-methyl-6-oxo-1,6-dihydropyridin-3-yl)thiophen-2-ylmethyl]acetamide hydrochloride], for which the concentration for half-maximal inhibition (IC50) stood at 0.49 µM.

With `CCc1cc(-c2ccc(CNCc3ccccc3OC)s2)c(C)[nH]c1=O` [Example 187, 3-Ethyl-5-{5-[(2-methoxybenzylamino)methyl]thiophen-2-yl}-6-methyl-1H-pyridin-2-one hydrochloride], the IC50 was 0.4 µM. To `CCc1cc(-c2ccc(S(=O)(=O)NCCCCc3cccnc3)s2)c(C)[nH]c1=O` [Example 84, 5-[5-Ethyl-2-methyl-6-oxo-1,6-dihydropyridin-3-yl]thiophene-2-sulfonic acid 4-(pyridin-3-ylbutyl)]amide hydrochloride] belongs 1.6 µM. `CCc1cc(-c2ccc(CN3CCC(F)(F)C3)s2)c(C)[nH]c1=O` [Example 172, 5-{5-[(3,3-Difluoropyrrolidin-1-ylmethyl)(thiophen-2-yl)-3-ethyl-6-methyl-1H-pyridin-2-one hydrochloride]: the half-inhibitory concentration (IC50) worked out at 1 µM. In the case of `CCc1cc(-c2ccc(CNc3cc(F)cc(F)c3)s2)c(C)[nH]c1=O` [Example 145, 5-{5-[(3,5-Difluoro-phenylamino)-methyl]thiophen-2-yl}-3-ethyl-6-methyl-1H-pyridin-2-one hydrochloride], the IC50 was 4 µM. Turning to `CCc1cc(-c2ccc(S(=O)(=O)NCCCN3CCN(C)CC3)s2)c(C)[nH]c1=O` [Example 65, 5-(5-Ethyl-2-methyl-6-oxo-1,6-dihydropyridin-3-yl)thiophene-2-sulfonic acid 3-(4-methylpiperazin-1-yl)propylamide dihydrochloride], the 50% inhibitory concentration (IC50) stood at 0.67 µM. Next, `CCc1cc(-c2ccc(CNCc3ccc(C)cc3)s2)c(C)[nH]c1=O` [Example 166, 5-{5-[(4-Methylbenzylamino)methyl]thiophen-2-y}]-3-ethyl-6-methyl-1H-pyridin-2-one hydrochloride]: 0.68 µM. To `CCOC(=O)N1CCN(S(=O)(=O)c2ccc(-c3cc(CC)c(=O)[nH]c3C)s2)CC1` [Example 89, 4-[5-(5-Ethyl-2-methyl-6-oxo-1,6-dihydropyridin-3-yl)thiophene-2-sulfonyl]piperazine-1-carboxylic acid ethyl ester] belongs 10.8 µM; to `CCc1cc(-c2ccc(S(=O)(=O)N3CCCC(CO)C3)s2)c(C)[nH]c1=O` (stereo not drawn) [Example 90, 3-Ethyl-5-[5-(3-hydroxymethylpiperidine-1-sulfonyl)thiophen-2-yl]-6-methyl-1H-pyridin-2-one], 0.68 µM; to `CCc1cc(-c2ccc(CNCc3ccccc3)s2)c(C)[nH]c1=O` [Example 157, 5-[5-(Benzylamino-methyl)-thiophen-2-yl]-3-ethyl-6-methyl-1H-pyridin-2-one hydrochloride], 0.6 µM. Next, `CCc1cc(-c2ccc(S(=O)(=O)NCC(c3cccnc3)N3CCOCC3)s2)c(C)[nH]c1=O` (stereo not drawn) [Example 72, 5-[5-Ethyl-2-methyl-6-oxo-1,6-dihydropyridin-3-yl]thiophene-2-sulfonic acid 2-(morpholin-4-yl)-2-(pyridin-3-yl)ethylamide dihydrochloride]: 1.2 µM; `CCc1cc(-c2ccc(CNCc3ccncc3)s2)c(C)[nH]c1=O` [Example 152, 3-Ethyl-6-methyl-5-{5-{[(pyridin-4-ylmethyl)-amino]-methyl-thiophen-2-yl)-1H-pyridin-2-one dihydrochloride]: 0.83 µM. In the case of `CCc1cc(-c2ccc(S(=O)(=O)N3CCOCC3)s2)c(C)[nH]c1=O` [Example 86, 3-Ethyl-6-methyl-5-[5-(morpholine-4-sulfonyl)thiophen-2-yl]-1H-pyridin-2-one], the concentration for half-maximal inhibition (IC50) is 4.5 µM. To `CCc1cc(-c2ccc(S(=O)(=O)NCCN3CCCCC3)o2)c(C)[nH]c1=O` [Example 50, 5-(5-Ethyl-2-methyl-6-oxo-1,6-dihydropyridin-3-yl)furan-2-sulfonic acid (2-piperidin-1-yl)ethylamide hydrochloride] belongs 0.27 µM; to `CCc1cc(-c2ccc(S(=O)(=O)NCc3cncc(C)n3)s2)c(C)[nH]c1=O` [Example 73, 5-[5-Ethyl-2-methyl-6-oxo-1,6-dihydropyridin-3-yl]thiophene-2-sulfonic acid (6-methylpyrazin-2-yl)methylamide hydrochloride], 0.42 µM; to `CCc1cc(-c2ccc(S(=O)(=O)N3CCC(O)CC3)s2)c(C)[nH]c1=O` [Example 87, 3-Ethyl-5-[5-(4-hydroxypiperidine-1-sulfonyl)thiophen-2-yl]-6-methyl-1H-pyridin-2-one], 5.3 µM.

Turning to `CCc1cc(-c2ccc(S(=O)(=O)N3CCC[C@H]3CNc3ccccc3)s2)c(C)[nH]c1=O` [Example 105, 3-Ethyl-6-methyl-5-[5-((S)-2-phenylaminomethylpyrrolidine-1-sulfonyl)-thiophen-2-yl]-1H-pyridin-2-one hydrochloride], the IC50 stood at 3.1 µM. `CCc1cc(-c2ccc(S(=O)(=O)NCC3CCNCC3)s2)c(C)[nH]c1=O` [Example 41-2, 5-[5-Ethyl-2-methyl-6-oxo-(1,6-dihydropyridin-3-yl)]thiophene-2-sulfonic acid (piperidin-4-yl)methylamide hydrochloride]: the half-inhibitory concentration (IC50) stood at 0.52 µM.

Take `CCc1cc(-c2ccc(S(=O)(=O)NCCc3cccnc3)o2)c(C)[nH]c1=O` [Example 48, 5-(5-Ethyl-2-methyl-6-oxo-1,6-dihydropyridin-3-yl)furan-2-sulfonic acid (2-pyridin-3-yl)ethylamide hydrochloride]: the IC50 was determined as 0.36 µM.

Turning to `CCc1cc(-c2ccc(CNCc3cccs3)s2)c(C)[nH]c1=O` [Example 170, 3-Ethyl-6-methyl-5-(5-{[(thiophen-2-ylmethyl)amino]methyl}-thiophen-2-yl)-1H-pyridin-2-one hydrochloride], the concentration for half-maximal inhibition (IC50) was found to be 0.28 µM. To `CCc1cc(-c2ccc(CNCCOC)s2)c(C)[nH]c1=O` [Example 138, 3-Ethyl-5-{5-[(2-methoxyethylamino)-methyl]thiophen-2-yl}-6-methyl-1H-pyridin-2-one hydrochloride] belongs 0.63 µM; to `CCc1cc(-c2ccc(S(=O)(=O)N(C)C)s2)c(C)[nH]c1=O` [Example 28, 5-(5-Ethyl-2-methyl-6-oxo-1,6-dihydropyridin-3-yl)thiophene-2-sulfonic acid dimethylamide], 0.72 µM; to `CCc1cc(-c2ccc(S(=O)(=O)N3CCN(Cc4ccccc4)CC3)s2)c(C)[nH]c1=O` [Example 100, 5-[5-(4-Benzylpiperazine-1-sulfonyl)thiophen-2-yl]-3-ethyl-6-methyl-1H-pyridin-2-one hydrochloride], 2.2 µM. With `CCc1cc(-c2ccc(CN3CCC(N4CCCC4)CC3)s2)c(C)[nH]c1=O` [Example 160, 3-Ethyl-6-methyl-5-[5-(4-pyrrolidin-1-ylpiperidin-1-ylmethyl)-thiophen-2-yl]1-1H-pyridin-2-one dihydrochloride], the concentration for half-maximal inhibition (IC50) was found to be 1.7 µM.

Source of the values: patent publication US8173682B2, “Substituted pyridones as inhibitors of poly(ADP-ribose) polymerase (PARP)” (Aventis Pharmaceuticals Inc., priority 2004, dated 2012).
